Experimental data taken from ChEMBL document CHEMBL4507297, “Data for DCP probe PF-04457845” (2021).

Experiments:
[1] = system: Tyrosine-protein kinase ABL1 (Homo sapiens), P00519 [E255K]; conditions: Compound concentration 1000.0 nM
[2] = target: NUAK family SNF1-like kinase 1 (Homo sapiens) (UniProt O60285); conditions: Compound concentration 1000.0 nM
[3] = target: Mitogen-activated protein kinase kinase kinase 5 (Homo sapiens) (UniProt Q99683); conditions: Compound concentration 1000.0 nM
[4] = target: Calcium/calmodulin-dependent protein kinase type IV (Homo sapiens) (UniProt Q16566); conditions: Compound concentration 1000.0 nM
Sequence of Calcium/calmodulin-dependent protein kinase type IV (Homo sapiens) (Q16566 whole entry): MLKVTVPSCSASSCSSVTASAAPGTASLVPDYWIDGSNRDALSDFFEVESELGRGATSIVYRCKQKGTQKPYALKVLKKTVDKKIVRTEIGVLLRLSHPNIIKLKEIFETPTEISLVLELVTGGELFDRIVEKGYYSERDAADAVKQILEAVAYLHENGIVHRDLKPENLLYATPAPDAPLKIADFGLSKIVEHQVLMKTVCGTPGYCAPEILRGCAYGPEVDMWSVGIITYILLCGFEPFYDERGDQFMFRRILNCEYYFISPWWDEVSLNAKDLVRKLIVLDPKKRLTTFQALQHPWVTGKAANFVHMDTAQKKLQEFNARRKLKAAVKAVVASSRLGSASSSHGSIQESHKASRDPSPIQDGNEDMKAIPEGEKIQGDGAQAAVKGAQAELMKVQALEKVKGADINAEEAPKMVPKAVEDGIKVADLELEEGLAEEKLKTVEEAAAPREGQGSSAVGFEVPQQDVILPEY

[5] = target: Cyclin-dependent kinase 2 (Homo sapiens) (UniProt P24941); conditions: Compound concentration 1000.0 nM
[6] = target: Casein kinase I isoform gamma-1 (Homo sapiens) (UniProt Q9HCP0); conditions: Compound concentration 1000.0 nM
Sequence of Casein kinase I isoform gamma-1 (Homo sapiens) (Q9HCP0 whole entry, looked up, canonical isoform): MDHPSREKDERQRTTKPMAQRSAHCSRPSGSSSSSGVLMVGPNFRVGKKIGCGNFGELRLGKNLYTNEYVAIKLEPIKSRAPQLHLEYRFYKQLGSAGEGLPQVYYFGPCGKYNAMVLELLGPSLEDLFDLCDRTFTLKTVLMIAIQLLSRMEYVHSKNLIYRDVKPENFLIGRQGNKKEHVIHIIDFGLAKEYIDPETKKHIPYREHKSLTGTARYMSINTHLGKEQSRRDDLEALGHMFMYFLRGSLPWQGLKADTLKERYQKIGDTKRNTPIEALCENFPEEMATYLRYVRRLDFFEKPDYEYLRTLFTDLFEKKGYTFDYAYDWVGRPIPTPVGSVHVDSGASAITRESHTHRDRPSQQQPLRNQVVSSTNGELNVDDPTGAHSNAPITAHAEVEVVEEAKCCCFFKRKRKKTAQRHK

[7] = target: Death-associated protein kinase 1 (Homo sapiens) (UniProt P53355); conditions: Compound concentration 1000.0 nM
[8] = target: Mitogen-activated protein kinase kinase kinase 12 (Homo sapiens) (UniProt Q12852); conditions: Compound concentration 1000.0 nM
[9] = system: Epidermal growth factor receptor (Homo sapiens), P00533 [L858R,T790M]; conditions: Compound concentration 1000.0 nM
[10] = target: Ephrin type-B receptor 3 (Homo sapiens) (UniProt P54753); conditions: Compound concentration 1000.0 nM
Sequence of Ephrin type-B receptor 3 (Homo sapiens) (P54753 whole entry): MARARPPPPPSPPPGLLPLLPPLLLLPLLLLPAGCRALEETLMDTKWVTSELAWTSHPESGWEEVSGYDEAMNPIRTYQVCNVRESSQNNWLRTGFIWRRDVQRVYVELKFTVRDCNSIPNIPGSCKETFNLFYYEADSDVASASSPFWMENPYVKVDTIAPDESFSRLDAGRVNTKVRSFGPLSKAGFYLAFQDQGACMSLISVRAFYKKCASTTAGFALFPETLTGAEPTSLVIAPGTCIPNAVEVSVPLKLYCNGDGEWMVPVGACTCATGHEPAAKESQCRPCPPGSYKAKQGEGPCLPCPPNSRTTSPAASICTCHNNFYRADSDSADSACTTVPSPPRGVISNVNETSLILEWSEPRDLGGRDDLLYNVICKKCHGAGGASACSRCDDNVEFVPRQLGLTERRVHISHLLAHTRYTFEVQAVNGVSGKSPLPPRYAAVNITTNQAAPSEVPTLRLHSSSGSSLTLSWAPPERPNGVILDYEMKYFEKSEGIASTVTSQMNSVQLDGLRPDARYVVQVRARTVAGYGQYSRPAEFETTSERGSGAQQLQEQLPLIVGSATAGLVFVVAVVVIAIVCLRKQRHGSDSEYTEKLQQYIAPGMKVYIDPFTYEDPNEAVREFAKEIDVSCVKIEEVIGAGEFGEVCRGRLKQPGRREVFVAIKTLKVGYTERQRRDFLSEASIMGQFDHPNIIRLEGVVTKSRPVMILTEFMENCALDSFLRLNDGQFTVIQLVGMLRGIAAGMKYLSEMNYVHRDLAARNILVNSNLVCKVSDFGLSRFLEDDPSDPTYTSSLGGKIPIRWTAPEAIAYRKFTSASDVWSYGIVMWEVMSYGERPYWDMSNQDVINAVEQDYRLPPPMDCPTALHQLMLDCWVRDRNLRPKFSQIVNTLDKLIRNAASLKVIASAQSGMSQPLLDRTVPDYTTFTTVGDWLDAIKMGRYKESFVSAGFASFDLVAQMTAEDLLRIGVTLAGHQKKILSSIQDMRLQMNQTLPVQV

[11] = target: Mitogen-activated protein kinase 3 (Homo sapiens) (UniProt P27361); conditions: Compound concentration 1000.0 nM
Sequence of Mitogen-activated protein kinase 3 (Homo sapiens) (P27361 whole entry): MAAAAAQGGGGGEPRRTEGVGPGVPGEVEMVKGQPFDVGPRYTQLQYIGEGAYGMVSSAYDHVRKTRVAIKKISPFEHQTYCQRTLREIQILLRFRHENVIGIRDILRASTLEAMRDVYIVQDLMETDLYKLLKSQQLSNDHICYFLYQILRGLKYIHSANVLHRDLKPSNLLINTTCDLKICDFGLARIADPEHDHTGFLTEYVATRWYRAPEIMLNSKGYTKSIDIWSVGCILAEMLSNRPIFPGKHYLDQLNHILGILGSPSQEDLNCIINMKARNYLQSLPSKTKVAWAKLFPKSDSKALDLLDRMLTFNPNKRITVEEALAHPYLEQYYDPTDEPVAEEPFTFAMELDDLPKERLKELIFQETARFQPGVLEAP

[12] = target: Rhodopsin kinase GRK1 (Homo sapiens) (UniProt Q15835); conditions: Compound concentration 1000.0 nM
[13] = target: G protein-coupled receptor kinase 3 (Homo sapiens) (UniProt P35626); conditions: Compound concentration 1000.0 nM
[14] = target: Glycogen synthase kinase-3 beta (Homo sapiens) (UniProt P49841); conditions: Compound concentration 1000.0 nM
[15] = target: Tyrosine-protein kinase HCK (Homo sapiens) (UniProt P08631); conditions: Compound concentration 1000.0 nM
[16] = target: Insulin receptor (Homo sapiens) (UniProt P06213); conditions: Compound concentration 1000.0 nM
[17] = target: Tyrosine-protein kinase ITK/TSK (Homo sapiens) (UniProt Q08881); conditions: Compound concentration 1000.0 nM
[18] = target: Serine/threonine-protein kinase STK11 (Homo sapiens) (UniProt Q15831); conditions: Compound concentration 1000.0 nM
[19] = system: Leucine-rich repeat serine/threonine-protein kinase 2 (Homo sapiens), Q5S007 [G2019S]; conditions: Compound concentration 1000.0 nM
[20] = target: Dual specificity mitogen-activated protein kinase kinase 2 (Homo sapiens) (UniProt P36507); conditions: Compound concentration 1000.0 nM
[21] = system: Hepatocyte growth factor receptor (Homo sapiens), P08581 [M1250T]; conditions: Compound concentration 1000.0 nM
[22] = target: MAP kinase-interacting serine/threonine-protein kinase 1 (Homo sapiens) (UniProt Q9BUB5); conditions: Compound concentration 1000.0 nM
[23] = target: Serine/threonine-protein kinase MRCK beta (Homo sapiens) (UniProt Q9Y5S2); conditions: Compound concentration 1000.0 nM
[24] = target: Serine/threonine-protein kinase Nek4 (Homo sapiens) (UniProt P51957); conditions: Compound concentration 1000.0 nM
[25] = target: Mitogen-activated protein kinase 12 (Homo sapiens) (UniProt P53778); conditions: Compound concentration 1000.0 nM
[26] = target: Platelet-derived growth factor receptor beta (Homo sapiens) (UniProt P09619); conditions: Compound concentration 1000.0 nM
[27] = target: 1-phosphatidylinositol 3-phosphate 5-kinase (Homo sapiens) (UniProt Q9Y2I7); conditions: Compound concentration 1000.0 nM
[28] = target: Phosphatidylinositol 5-phosphate 4-kinase type-2 gamma (Homo sapiens) (UniProt Q8TBX8); conditions: Compound concentration 1000.0 nM
[29] = target: cAMP-dependent protein kinase catalytic subunit beta (Homo sapiens) (UniProt P22694); conditions: Compound concentration 1000.0 nM
[30] = target: cGMP-dependent protein kinase 2 (Homo sapiens) (UniProt Q13237); conditions: Compound concentration 1000.0 nM
[31] = target: Serine/threonine-protein kinase PRP4 homolog (Homo sapiens) (UniProt Q13523); conditions: Compound concentration 1000.0 nM
[32] = target: SRSF protein kinase 1 (Homo sapiens) (UniProt Q96SB4); conditions: Compound concentration 1000.0 nM
[33] = target: Serine/threonine-protein kinase 33 (Homo sapiens) (UniProt Q9BYT3); conditions: Compound concentration 1000.0 nM
Sequence of Serine/threonine-protein kinase 33 (Homo sapiens) (Q9BYT3 whole entry, looked up): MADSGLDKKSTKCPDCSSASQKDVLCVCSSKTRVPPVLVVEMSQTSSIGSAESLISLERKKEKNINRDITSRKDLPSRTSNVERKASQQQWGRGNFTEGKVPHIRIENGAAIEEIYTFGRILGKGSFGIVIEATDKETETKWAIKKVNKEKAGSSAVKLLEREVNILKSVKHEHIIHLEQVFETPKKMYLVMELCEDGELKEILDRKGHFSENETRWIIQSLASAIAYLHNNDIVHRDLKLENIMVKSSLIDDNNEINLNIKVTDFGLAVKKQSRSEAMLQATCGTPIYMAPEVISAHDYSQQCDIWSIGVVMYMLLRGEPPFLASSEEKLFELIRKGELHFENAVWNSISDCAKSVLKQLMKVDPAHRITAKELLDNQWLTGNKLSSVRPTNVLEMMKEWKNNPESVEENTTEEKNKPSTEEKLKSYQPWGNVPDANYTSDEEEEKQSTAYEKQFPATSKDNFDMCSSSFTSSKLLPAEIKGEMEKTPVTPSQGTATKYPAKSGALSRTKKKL

[34] = target: BDNF/NT-3 growth factors receptor (Homo sapiens) (UniProt Q16620); conditions: Compound concentration 1000.0 nM
[35] = target: Testis-specific serine/threonine-protein kinase 3 (Homo sapiens) (UniProt Q96PN8); conditions: Compound concentration 1000.0 nM
[36] = target: Serine/threonine-protein kinase ULK2 (Homo sapiens) (UniProt Q8IYT8); conditions: Compound concentration 1000.0 nM
[37] = target: Wee1-like protein kinase (Homo sapiens) (UniProt P30291); conditions: Compound concentration 1000.0 nM
Sequence of Wee1-like protein kinase (Homo sapiens) (P30291 whole entry, looked up): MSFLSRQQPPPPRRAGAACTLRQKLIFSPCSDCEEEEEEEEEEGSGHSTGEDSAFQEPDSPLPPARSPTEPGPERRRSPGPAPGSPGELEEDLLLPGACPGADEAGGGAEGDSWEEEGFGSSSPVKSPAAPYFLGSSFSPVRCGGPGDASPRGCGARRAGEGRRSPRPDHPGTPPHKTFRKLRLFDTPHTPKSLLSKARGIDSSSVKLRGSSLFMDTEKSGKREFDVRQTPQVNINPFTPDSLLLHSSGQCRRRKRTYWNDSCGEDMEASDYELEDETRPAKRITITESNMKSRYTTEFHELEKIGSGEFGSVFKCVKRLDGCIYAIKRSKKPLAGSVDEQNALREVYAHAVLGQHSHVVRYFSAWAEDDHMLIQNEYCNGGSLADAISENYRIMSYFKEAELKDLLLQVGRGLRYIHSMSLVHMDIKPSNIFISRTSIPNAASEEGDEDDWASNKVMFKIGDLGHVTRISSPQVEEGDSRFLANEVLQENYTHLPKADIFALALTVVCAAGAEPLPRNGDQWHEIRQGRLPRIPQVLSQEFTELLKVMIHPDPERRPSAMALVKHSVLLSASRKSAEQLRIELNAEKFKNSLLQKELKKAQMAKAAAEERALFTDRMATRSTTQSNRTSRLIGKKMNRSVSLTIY

[38] = target: 5-hydroxytryptamine receptor 1B (Homo sapiens) (UniProt P28222); conditions: Compound concentration 10.0 uM
[39] = target: D(1B) dopamine receptor (Homo sapiens) (UniProt P21918); conditions: Compound concentration 10.0 uM
[40] = target: Histamine H1 receptor (Homo sapiens) (UniProt P35367); conditions: Compound concentration 10.0 uM
[41] = target: Sigma intracellular receptor 2 (Homo sapiens, UniProt Q5BJF2); conditions: Compound concentration 10.0 uM
Sequence of Sigma intracellular receptor 2 (Q5BJF2 whole entry): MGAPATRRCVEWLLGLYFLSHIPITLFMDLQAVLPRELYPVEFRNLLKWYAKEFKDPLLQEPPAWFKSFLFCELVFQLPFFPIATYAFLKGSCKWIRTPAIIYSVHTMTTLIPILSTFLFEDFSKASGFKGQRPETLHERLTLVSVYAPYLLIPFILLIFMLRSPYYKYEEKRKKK

Sequence of Mitogen-activated protein kinase kinase kinase 5 (Homo sapiens) (Q99683 whole entry): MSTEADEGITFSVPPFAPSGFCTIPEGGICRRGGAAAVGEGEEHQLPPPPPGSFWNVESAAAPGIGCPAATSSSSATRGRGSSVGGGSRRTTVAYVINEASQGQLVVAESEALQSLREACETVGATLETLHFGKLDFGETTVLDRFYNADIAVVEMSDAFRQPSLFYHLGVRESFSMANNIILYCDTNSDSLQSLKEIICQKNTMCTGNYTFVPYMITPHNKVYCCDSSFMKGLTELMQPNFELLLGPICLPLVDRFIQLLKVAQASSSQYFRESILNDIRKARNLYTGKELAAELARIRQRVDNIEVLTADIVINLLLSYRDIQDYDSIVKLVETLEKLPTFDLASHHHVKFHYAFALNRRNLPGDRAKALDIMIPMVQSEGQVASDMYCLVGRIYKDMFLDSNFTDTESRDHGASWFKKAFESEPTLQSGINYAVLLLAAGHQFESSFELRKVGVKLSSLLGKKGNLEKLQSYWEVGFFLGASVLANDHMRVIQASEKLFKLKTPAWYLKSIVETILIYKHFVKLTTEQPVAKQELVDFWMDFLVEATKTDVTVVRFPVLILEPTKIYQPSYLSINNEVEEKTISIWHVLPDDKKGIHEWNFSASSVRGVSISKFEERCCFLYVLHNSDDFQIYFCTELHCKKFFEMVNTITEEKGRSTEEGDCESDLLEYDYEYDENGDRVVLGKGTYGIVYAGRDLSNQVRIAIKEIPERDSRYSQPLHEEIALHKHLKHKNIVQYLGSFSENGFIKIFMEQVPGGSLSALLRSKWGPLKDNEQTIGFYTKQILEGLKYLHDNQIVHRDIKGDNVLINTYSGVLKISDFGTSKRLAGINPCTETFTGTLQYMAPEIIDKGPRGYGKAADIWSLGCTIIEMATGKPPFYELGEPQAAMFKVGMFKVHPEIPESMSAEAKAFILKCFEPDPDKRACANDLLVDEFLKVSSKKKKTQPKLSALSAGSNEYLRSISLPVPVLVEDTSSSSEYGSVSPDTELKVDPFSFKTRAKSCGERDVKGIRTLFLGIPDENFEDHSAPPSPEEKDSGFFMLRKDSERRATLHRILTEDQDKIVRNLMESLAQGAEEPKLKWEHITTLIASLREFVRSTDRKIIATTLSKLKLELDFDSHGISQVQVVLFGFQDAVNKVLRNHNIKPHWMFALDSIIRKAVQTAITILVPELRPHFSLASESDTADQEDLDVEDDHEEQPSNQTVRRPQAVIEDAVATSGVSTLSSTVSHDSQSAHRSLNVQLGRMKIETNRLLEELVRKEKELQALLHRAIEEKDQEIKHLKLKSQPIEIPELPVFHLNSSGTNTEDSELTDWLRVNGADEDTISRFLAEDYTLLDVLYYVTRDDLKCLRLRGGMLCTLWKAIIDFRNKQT

## O=C(Nc1cccnn1)N1CC(C/C=C/c2cncc(Oc3ccc(C(F)(F)F)cn3)n2)C1
[1]
  residual activity: 81%
[2]
  residual activity: 100%
[3]
  residual activity: 98%
[4]
  residual activity: 100%
[5]
  residual activity: 100%
[6]
  residual activity: 100%
[7]
  residual activity: 98%
[8]
  residual activity: 83%
[9]
  residual activity: 82%
[10]
  residual activity: 100%
[11]
  residual activity: 99%
[12]
  residual activity: 82%
[13]
  residual activity: 100%
[14]
  residual activity: 77%
[15]
  residual activity: 100%
[16]
  residual activity: 100%
[17]
  residual activity: 100%
[18]
  residual activity: 64%
[19]
  residual activity: 100%
[20]
  residual activity: 95%
[21]
  residual activity: 100%
[22]
  residual activity: 67%
[23]
  residual activity: 100%
[24]
  residual activity: 95%
[25]
  residual activity: 100%
[26]
  residual activity: 81%
[27]
  residual activity: 100%
[28]
  residual activity: 100%
[29]
  residual activity: 100%
[30]
  residual activity: 91%
[31]
  residual activity: 100%
[32]
  residual activity: 82%
[33]
  residual activity: 100%
[34]
  residual activity: 77%
[35]
  residual activity: 98%
[36]
  residual activity: 73%
[37]
  residual activity: 100%
[38]
  inhibition: 4.8%
[39]
  inhibition: 4.5%
[40]
  inhibition: 30.9%
[41]
  inhibition: 69%

## O=C(Nc1cccnn1)N1CCC(=Cc2cccc(Oc3ccc(C(F)(F)F)cn3)c2)CC1
[1]
  residual activity: 85%
[2]
  residual activity: 86%
[3]
  residual activity: 100%
[4]
  residual activity: 63%
[5]
  residual activity: 100%
[6]
  residual activity: 100%
[7]
  residual activity: 100%
[8]
  residual activity: 100%
[9]
  residual activity: 99%
[10]
  residual activity: 81%
[11]
  residual activity: 100%
[12]
  residual activity: 89%
[13]
  residual activity: 100%
[14]
  residual activity: 100%
[15]
  residual activity: 98%
[16]
  residual activity: 100%
[17]
  residual activity: 100%
[18]
  residual activity: 100%
[19]
  residual activity: 100%
[20]
  residual activity: 100%
[21]
  residual activity: 100%
[22]
  residual activity: 100%
[23]
  residual activity: 100%
[24]
  residual activity: 98%
[25]
  residual activity: 100%
[26]
  residual activity: 97%
[27]
  residual activity: 100%
[28]
  residual activity: 75%
[29]
  residual activity: 100%
[30]
  residual activity: 100%
[31]
  residual activity: 100%
[32]
  residual activity: 97%
[33]
  residual activity: 100%
[34]
  residual activity: 100%
[35]
  residual activity: 100%
[36]
  residual activity: 100%
[37]
  residual activity: 97%
[38]
  inhibition: 24.4%
[39]
  inhibition: 29.3%
[40]
  inhibition: 27.2%
[41]
  inhibition: 91.3%
